Patent US9956168B2, “Extended release drug-delivery contact lenses and methods of making” (Mercy Medical Research Institute, priority 2013, dated 2018)

Test system: MKP-1
Assay: In vitro effective dose study (Western blots for MKP-1 on HeLa cells)
Type: cell-based
Details: HeLa cells incubated with varying concentration; extrapolated

Structure (SMILES): CC(=O)OCC(=O)[C@@]1(O)CC[C@H]2[C@@H]3CCC4=CC(=O)C=C[C@]4(C)[C@H]3[C@@H](O)C[C@@]21C [Prednisolone-21-acetate]
- in vitro effective dose: 5-10 ppm
